In brackets after ≈: the same amount, converted by molar mass.
Columns and labels:
Type in all cases: functional
[1] = test system: Pseudomonas aeruginosa; assay: Antibacterial activity against Pseudomonas aeruginosa assessed as inhibition of bacterial growth measured after 24 hrs incubation
[2] = test system: Escherichia coli; assay: Antibacterial activity against Escherichia coli ATCC 25922 assessed as inhibition of bacterial growth measured after 24 hrs incubation
[3] = test system: Enterococcus faecalis; assay: Antibacterial activity against Enterococcus faecalis assessed as inhibition of bacterial growth measured after 24 hrs incubation
[4] = test system: Acinetobacter baumannii; assay: Antibacterial activity against Acinetobacter baumannii assessed as inhibition of bacterial growth measured after 24 hrs incubation
[5] = test system: Staphylococcus aureus; assay: Antibacterial activity against methicillin-resistant Staphylococcus aureus N315 assessed as inhibition of bacterial growth measured after 24 hrs incubation
[6] = test system: Escherichia coli; assay: Antibacterial activity against Escherichia coli assessed as inhibition of bacterial growth measured after 24 hrs incubation
[7] = test system: Staphylococcus aureus; assay: Antibacterial activity against Staphylococcus aureus ATCC 29213 assessed as inhibition of bacterial growth measured after 24 hrs incubation
[8] = test system: Klebsiella pneumoniae; assay: Antibacterial activity against Klebsiella pneumonia assessed as inhibition of bacterial growth measured after 24 hrs incubation
[9] = test system: Staphylococcus aureus; assay: Antibacterial activity against Staphylococcus aureus assessed as inhibition of bacterial growth measured after 24 hrs incubation
[10] = test system: Pseudomonas aeruginosa; assay: Antibacterial activity against Pseudomonas aeruginosa ATCC 27853 assessed as inhibition of bacterial growth measured after 24 hrs incubation
[11] = test system: Staphylococcus aureus; assay: Antibacterial activity against Staphylococcus aureus ATCC 25923 assessed as inhibition of bacterial growth measured after 24 hrs incubation

Compound: CCn1cc(C(=O)O)c(=O)c2cc(F)c(N3CCN(C(=O)/C(C#N)=C/c4cn(Cc5cccc(F)c5)c5ccccc45)CC3)cc21
- MIC [1]: 2 µg/mL (≈ 3.22 µM)
- MIC [2]: 0.25 µg/mL (≈ 0.402 µM)
- MIC [3]: 16 µg/mL (≈ 25.7 µM)
- MIC [4]: 0.5 µg/mL (≈ 0.804 µM)
- MIC [5]: 16 µg/mL (≈ 25.7 µM)
- MIC [6]: 0.25 µg/mL (≈ 0.402 µM)
- MIC [7]: 8 µg/mL (≈ 12.9 µM)
- MIC [8]: 1 µg/mL (≈ 1.61 µM)
- MIC [9]: 32 µg/mL (≈ 51.5 µM)
- MIC [10]: 1 µg/mL (≈ 1.61 µM)
- MIC [11]: 16 µg/mL (≈ 25.7 µM)

Compound: CCCCCCn1cc(C(=O)O)c(=O)c2cc(F)c(N3CCN(C(=O)/C(C#N)=C/c4cn(CC(=O)OCC)c5ccccc45)CC3)cc21
- MIC [1]: 1 µg/mL (≈ 1.53 µM)
- MIC [2]: 0.5 µg/mL (≈ 0.763 µM)
- MIC [3]: 0.25 µg/mL (≈ 0.381 µM)
- MIC [4]: 8 µg/mL (≈ 12.2 µM)
- MIC [5]: 128 µg/mL (≈ 195 µM)
- MIC [6]: 32 µg/mL (≈ 48.8 µM)
- MIC [7]: 8 µg/mL (≈ 12.2 µM)
- MIC [8]: 16 µg/mL (≈ 24.4 µM)
- MIC [9]: 64 µg/mL (≈ 97.6 µM)
- MIC [10]: 16 µg/mL (≈ 24.4 µM)
- MIC [11]: 4 µg/mL (≈ 6.1 µM)

Compound: CCn1cc(C(=O)O)c(=O)c2cc(F)c(N3CCN(C(=O)/C(C#N)=C/c4c(C)[nH]c5ccccc45)CC3)cc21
- MIC [1]: 1 µg/mL (≈ 1.9 µM)
- MIC [2]: 0.25 µg/mL (≈ 0.474 µM)
- MIC [3]: 1 µg/mL (≈ 1.9 µM)
- MIC [4]: 1 µg/mL (≈ 1.9 µM)
- MIC [5]: 2 µg/mL (≈ 3.79 µM)
- MIC [6]: 1 µg/mL (≈ 1.9 µM)
- MIC [7]: 0.25 µg/mL (≈ 0.474 µM)
- MIC [8]: 2 µg/mL (≈ 3.79 µM)
- MIC [9]: 1 µg/mL (≈ 1.9 µM)
- MIC [10]: 0.5 µg/mL (≈ 0.948 µM)
- MIC [11]: 4 µg/mL (≈ 7.58 µM)

Compound: CCOC(=O)Cn1cc(/C=C(\C#N)C(=O)N2CCN(c3cc4c(cc3F)c(=O)c(C(=O)O)cn4CC=C(C)C)CC2)c2ccccc21
- MIC [1]: 16 µg/mL (≈ 25 µM)
- MIC [2]: 0.5 µg/mL (≈ 0.782 µM)
- MIC [3]: 0.25 µg/mL (≈ 0.391 µM)
- MIC [4]: 16 µg/mL (≈ 25 µM)
- MIC [5]: 8 µg/mL (≈ 12.5 µM)
- MIC [6]: 32 µg/mL (≈ 50 µM)
- MIC [7]: 8 µg/mL (≈ 12.5 µM)
- MIC [8]: 1 µg/mL (≈ 1.56 µM)
- MIC [9]: 16 µg/mL (≈ 25 µM)
- MIC [10]: 16 µg/mL (≈ 25 µM)
- MIC [11]: 16 µg/mL (≈ 25 µM)

Compound: CCn1cc(C(=O)O)c(=O)c2cc(F)c(N3CCN(C(=O)/C(C#N)=C/c4c[nH]c5ccccc45)CC3)cc21
- MIC [1]: 1 µg/mL (≈ 1.95 µM)
- MIC [2]: 0.25 µg/mL (≈ 0.487 µM)
- MIC [3]: 0.25 µg/mL (≈ 0.487 µM)
- MIC [4]: 0.25 µg/mL (≈ 0.487 µM)
- MIC [5]: 0.5 µg/mL (≈ 0.974 µM)
- MIC [6]: 0.5 µg/mL (≈ 0.974 µM)
- MIC [7]: 0.5 µg/mL (≈ 0.974 µM)
- MIC [8]: 0.25 µg/mL (≈ 0.487 µM)
- MIC [9]: 4 µg/mL (≈ 7.79 µM)
- MIC [10]: 0.5 µg/mL (≈ 0.974 µM)
- MIC [11]: 1 µg/mL (≈ 1.95 µM)

Compound: CCn1cc(C(=O)O)c(=O)c2cc(F)c(N3CCN(C(=O)/C(C#N)=C/c4cn(CC=C(C)C)c5ccccc45)CC3)cc21
- MIC [1]: 8 µg/mL (≈ 13.8 µM)
- MIC [2]: 0.5 µg/mL (≈ 0.86 µM)
- MIC [3]: 1 µg/mL (≈ 1.72 µM)
- MIC [4]: 2 µg/mL (≈ 3.44 µM)
- MIC [5]: 8 µg/mL (≈ 13.8 µM)
- MIC [6]: 64 µg/mL (≈ 110 µM)
- MIC [7]: 4 µg/mL (≈ 6.88 µM)
- MIC [8]: 0.25 µg/mL (≈ 0.43 µM)
- MIC [9]: 1 µg/mL (≈ 1.72 µM)
- MIC [10]: 1 µg/mL (≈ 1.72 µM)
- MIC [11]: 4 µg/mL (≈ 6.88 µM)

Compound: CCCCn1cc(/C=C(\C#N)C(=O)N2CCN(c3cc4c(cc3F)c(=O)c(C(=O)O)cn4CC)CC2)c2ccccc21
- MIC [1]: 1 µg/mL (≈ 1.76 µM)
- MIC [2]: 2 µg/mL (≈ 3.51 µM)
- MIC [3]: 2 µg/mL (≈ 3.51 µM)
- MIC [4]: 2 µg/mL (≈ 3.51 µM)
- MIC [5]: 2 µg/mL (≈ 3.51 µM)
- MIC [6]: 4 µg/mL (≈ 7.02 µM)
- MIC [7]: 1 µg/mL (≈ 1.76 µM)
- MIC [8]: 0.5 µg/mL (≈ 0.878 µM)
- MIC [9]: 2 µg/mL (≈ 3.51 µM)
- MIC [10]: 1 µg/mL (≈ 1.76 µM)
- MIC [11]: 4 µg/mL (≈ 7.02 µM)

Compound: CCCCCCn1cc(/C=C(\C#N)C(=O)N2CCN(c3cc4c(cc3F)c(=O)c(C(=O)O)cn4CC)CC2)c2ccccc21
- MIC [1]: 16 µg/mL (≈ 26.8 µM)
- MIC [2]: 2 µg/mL (≈ 3.35 µM)
- MIC [3]: 32 µg/mL (≈ 53.5 µM)
- MIC [4]: 16 µg/mL (≈ 26.8 µM)
- MIC [5]: 0.5 µg/mL (≈ 0.837 µM)
- MIC [6]: 0.5 µg/mL (≈ 0.837 µM)
- MIC [7]: 4 µg/mL (≈ 6.69 µM)
- MIC [8]: 1 µg/mL (≈ 1.67 µM)
- MIC [9]: 0.5 µg/mL (≈ 0.837 µM)
- MIC [10]: 0.5 µg/mL (≈ 0.837 µM)
- MIC [11]: 64 µg/mL (≈ 107 µM)

Compound: CCn1cc(C(=O)O)c(=O)c2cc(F)c(N3CCNCC3)cc21 [NORFLOXACIN]
- MIC [1]: 4 µg/mL (≈ 12.5 µM)
- MIC [2]: 0.5 µg/mL (≈ 1.57 µM)
- MIC [3]: 0.5 µg/mL (≈ 1.57 µM)
- MIC [4]: 1 µg/mL (≈ 3.13 µM)
- MIC [5]: 0.5 µg/mL (≈ 1.57 µM)
- MIC [6]: 2 µg/mL (≈ 6.26 µM)
- MIC [7]: 1 µg/mL (≈ 3.13 µM)
- MIC [8]: 0.5 µg/mL (≈ 1.57 µM)
- MIC [9]: 0.5 µg/mL (≈ 1.57 µM)
- MIC [10]: 1 µg/mL (≈ 3.13 µM)
- MIC [11]: 2 µg/mL (≈ 6.26 µM)

Compound: CCCCCn1cc(/C=C(\C#N)C(=O)N2CCN(c3cc4c(cc3F)c(=O)c(C(=O)O)cn4CC)CC2)c2ccccc21
- MIC [1]: 4 µg/mL (≈ 6.85 µM)
- MIC [2]: 4 µg/mL (≈ 6.85 µM)
- MIC [3]: 8 µg/mL (≈ 13.7 µM)
- MIC [4]: 2 µg/mL (≈ 3.43 µM)
- MIC [5]: 16 µg/mL (≈ 27.4 µM)
- MIC [6]: 2 µg/mL (≈ 3.43 µM)
- MIC [7]: 8 µg/mL (≈ 13.7 µM)
- MIC [8]: 0.5 µg/mL (≈ 0.857 µM)
- MIC [9]: 32 µg/mL (≈ 54.8 µM)
- MIC [10]: 0.5 µg/mL (≈ 0.857 µM)
- MIC [11]: 1 µg/mL (≈ 1.71 µM)

From ChEMBL document CHEMBL5512655, “Discovery of indolylacryloyl-derived oxacins as novel potential broad-spectrum antibacterial candidates” (Eur J Med Chem, 2024)
